# Experimental data published in patent US9889115B2, “Fitness assay and associated methods” (priority 1998, dated 2018).
# Assays:
# Assay in all cases: continuous fluorogenic HIV protease assay
# Assay type in all cases: biochemical
# [1] = system: HIV-1 protease V82F/I84V; settings: V82F/I84V relative to WT (Table 1)
# Procedure: (§1) This example describes the protocol for the sensitive continuous fluorogenic assay for HIV protease of the present invention and its application. […] The inhibition constant for wild-type HIV-1, Kimnt/Kiwt ratio, and vitality were measured.
# (§2) The reaction was initiated by the addition of 5 μl of substrate stock solution in water. […] The initial rate of hydrolysis was calculated by second degree polynomial fit using SLM AB2 2.0 operating software.
# (§3) For inhibition studies, inhibitors were prepared as stock solutions at different concentrations in dimethylsulfoxide. […] The reaction was initiated by the addition of 5 μl of substrate stock solution in water. For data analysis, the mathematical model for tight-binding inhibitors was used.
# [2] = system: HIV-1 protease I84V; settings: I84V relative to WT
# Procedure: as §1, §2, §3
# [3] = target: T1, wild-type HIV-1 (WT) protease (Human immunodeficiency virus type 1 group M subtype B, UniProt P04585)
# T1 construct: the proteases of wild-type HIV-1 (WT)
# Procedure: as §1, §2, §3
# [4] = target: T2, HIV-1 protease G48V/L90M (Human immunodeficiency virus type 1 group M subtype B, UniProt P04585, G536V/L578M); settings: G48V/L90M relative to WT
# T2 construct: the proteases of wild-type HIV-1 (WT) and various mutant enzymes
# Procedure: as §1, §2, §3
# [5] = system: HIV-1 protease 20R/36I/54V/71V/82T; settings: 20R/36I/54V/71V/82T relative to WT
# Procedure: as §1, §2, §3
# [6] = system: HIV-1 protease M46F/V82A; settings: M46F/V82A relative to WT
# Procedure: as §1, §2, §3
# [7] = target: T3, HIV-1 protease V32I/K45I/F53L/A71V/I84V/L89M (Human immunodeficiency virus type 1 group M subtype B, UniProt P04585, A559V/F541L/I572V/K533I/L577M/V520I); settings: V32I/K45I/F53L/A71V/I84V/L89M relative to WT
# T3 construct: the proteases of wild-type HIV-1 (WT) and various mutant enzymes
# Procedure: as §1, §2, §3
# [8] = target: T4, HIV-1 protease V32I/L33F/K45I/F53L/A71V/I84V (Human immunodeficiency virus type 1 group M subtype B, UniProt P04585, A559V/F541L/I572V/K533I/L521F/V520I); settings: V32I/L33F/K45I/F53L/A71V/I84V relative to WT
# T4 construct: the proteases of wild-type HIV-1 (WT) and various mutant enzymes
# Procedure: as §1, §2, §3
# [9] = system: HIV-1 protease V32I; settings: V32I relative to WT
# Procedure: as §1, §2, §3
# [10] = target: T5, HIV-1 protease V32I/I84V (Human immunodeficiency virus type 1 group M subtype B, UniProt P04585, I572V/V520I); settings: V32I/I84V relative to WT
# T5 construct: the proteases of wild-type HIV-1 (WT) and various mutant enzymes
# Procedure: as §1, §2, §3
# [11] = target: HIV-1 protease V82T/I84V (Human immunodeficiency virus type 1 group M subtype B, UniProt P04585, I572V/V570T); settings: V82T/I84V relative to WT
# Procedure: as §1, §2, §3
# [12] = target: T6, HIV-1 protease D30N (Human immunodeficiency virus type 1 group M subtype B, UniProt P04585, D518N); settings: D30N relative to WT
# T6 construct: the proteases of wild-type HIV-1 (WT) and various mutant enzymes
# Procedure: as §1, §2, §3
smiles,measurement,setting,value
COc1ccc(S(=O)(=O)N(CC(C)C)C[C@@H](O)[C@H](Cc2ccccc2)NC(=O)O[C@H]2CO[C@H]3OCC[C@H]32)cc1 [Compound 32],Biochemical Fitness,[1],0.1
same,Biochemical Fitness,[2],1
same,Biochemical Fitness,[3],1
same,Biochemical Fitness,[4],0.1
same,Biochemical Fitness,[5],0.1
same,Biochemical Fitness,[6],0.1
same,Biochemical Fitness,[7],0.1
same,Biochemical Fitness,[8],0.1
same,Biochemical Fitness,[9],0.5
same,Biochemical Fitness,[10],0.7
same,Biochemical Fitness,[11],0.1
same,Biochemical Fitness,[12],0.3
